Broadly, the IC50 is the concentration that inhibits the measured activity by half.

Read-outs that look alike come from different tables or passages of the source. Some results are limits rather than exact numbers.

One test addresses JAK2 (Homo sapiens (Human), UniProt O60674). Briefly: JAK Caliper Enzyme Assay at 1 mM ATP, JAK2. It is filed as biochemical. In a few lines: (§1)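 Human recombinant kinase domain + fluorescently labelled synthetic peptide, 1 mM ATP, RT; enzyme level/time set for 20–30% phosphorylation. EDTA stop. LabChip separation, peak-height % conversion, % effect vs plate controls.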
For a further test, the target named is JAK1 (Homo sapiens (Human), UniProt P23458). Kind of test: JAK Caliper Enzyme Assay at 1 mM ATP, JAK1. It is filed as biochemical. In a few lines: (§2)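 Recombinant human kinase domains phosphorylate a fluorescent synthetic peptide at 1 mM ATP, room temperature, with enzyme and time tuned for 20-30% conversion; EDTA-stopped. Product/substrate separated by microfluidic mobility shift; percent effect versus DMSO and positive controls fitted to IC50 (nM).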

Another test concerns the target JAK3 (Homo sapiens (Human), UniProt P52333). Kind of test: JAK Caliper Enzyme Assay at 1 mM ATP, JAK3. It is filed as biochemical. The method, boiled down:
as §2

Test [1] concerns IL-12 signaling (TYK2 and JAK2), STAT4 phosphorylation. Kind of test: Human Whole Blood IL-12 Induced STAT4 Phosphorylation Assay. It is filed as cell-based. To be noted: IL-12 5 ng/mL, pSTAT4 in lymphocytes by flow cytometry. The protocol:
Selected compounds were assessed for their ability to inhibit IL-12 signaling in a human whole blood flow cytometry assay. IL-12 signals through TYK2 and JAK2.
Human Whole Blood IL-12 Induced STAT4 Phosphorylation Assay
Test articles were prepared as 30 mM stocks in DMSO. An 11-point 2.5 dilution series was created in DMSO with a top concentration of 10 mM. Further dilution was done by adding 4 μL of the above test article solutions into 96 μL of PBS with a top concentration of 400 μM. Human whole blood was collected from healthy donors via vein puncture into Vacutainer collection tubes containing sodium heparin (Catalog No. 366480; Becton Dickinson, Franklin Lakes, N.J.). Blood was warmed to 37° C. prior to use. Human whole blood was aliquoted ([…]) in 96-well, deep-well, V-bottom plates and treated with compounds at 11 different concentrations (0.2% DMSO final) at 37° C. for 60 minutes. This was followed by a challenge with IL-12 ([…]; final, 5 ng/mL) for 15 minutes. Samples were treated with warm 1× Lyse/Fix buffer ([…]) to terminate activation and further incubated at 37° C. for 20 minutes to lyse red blood cells. Plates were centrifuged at 300×g for 5 minutes, supernatant was aspirated, and cells were washed with […] of staining buffer (PBS containing 0.5% fetal bovine serum and 0.01% sodium azide). The washed cell pellets were resuspended with […] of pre-chilled 90% methanol, and incubated at 4° C. for 30 minutes. Plates were centrifuged at 300×g for 5 minutes, supernatant containing 90% methanol was aspirated, and cells were washed with […] of staining buffer. Cell pellets were resuspended in staining buffer containing anti-pSTAT4-AlexaFluor647 (1 to 150 dilution, […]), and incubated at room temperature in the dark overnight.
Samples were transferred to 96-well U-bottom plates and flow cytometric analysis was performed on a FACSCalibur or LSRFortessa equipped with a HTS plate loader (BD Biosciences). The lymphocyte population was gated for histogram analysis of pSTAT4. Background fluorescence was defined using unstimulated cells and a gate was placed at the foot of the peak to include ˜0.5% gated population. The histogram statistical analysis was performed using CellQuestÔ Pro version 5.2.1 (BD Biosciences) or FACSDiva version 6.2 (BD Biosciences) software. Relative fluorescence unit (RFU), which measures the level of phospho STAT4, was calculated by multiplying the percent positive population and its mean fluorescence. Data from 11 compound concentrations (singlicate at each concentration) was normalized as a percentage of control based on the formula: % of Control=100'(A−B)/(C−B) where A is the RFU from wells containing compound and IL-12, B is the RFU from wells without IL-12 and compound (minimum fluorescence) and C is the RFU from wells containing only IL-12 (maximum fluorescence). Inhibition curves and IC50 values were determined using the Prism version 5 software (GraphPad, La Jolla, Calif.).
(A flow cytometer gives signals particle by particle.)

Another test has as its target TYK2 (Homo sapiens (Human), UniProt P29597). Briefly: JAK Caliper Enzyme Assay at 1 mM ATP, TYK2. It is filed as biochemical. In a few lines:
as §1

JAK2, sequence (O60674 849-1124): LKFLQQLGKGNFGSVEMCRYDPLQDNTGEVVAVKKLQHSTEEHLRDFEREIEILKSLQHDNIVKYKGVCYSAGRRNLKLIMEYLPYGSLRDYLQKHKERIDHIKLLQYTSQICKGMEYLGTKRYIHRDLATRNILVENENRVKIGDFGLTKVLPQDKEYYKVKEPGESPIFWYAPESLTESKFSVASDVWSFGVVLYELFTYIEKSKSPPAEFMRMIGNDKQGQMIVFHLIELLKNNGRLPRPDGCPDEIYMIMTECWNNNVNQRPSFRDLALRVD
JAK3, sequence (P52333 822-1111): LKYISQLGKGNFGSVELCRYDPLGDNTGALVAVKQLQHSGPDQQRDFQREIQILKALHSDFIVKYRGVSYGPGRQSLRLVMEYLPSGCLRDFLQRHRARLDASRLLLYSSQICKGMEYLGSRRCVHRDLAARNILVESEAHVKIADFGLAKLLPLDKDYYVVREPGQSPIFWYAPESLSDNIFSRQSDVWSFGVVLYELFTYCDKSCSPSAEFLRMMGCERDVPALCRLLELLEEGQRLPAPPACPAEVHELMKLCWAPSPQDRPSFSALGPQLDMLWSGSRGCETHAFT
TYK2, sequence (P29597 897-1176): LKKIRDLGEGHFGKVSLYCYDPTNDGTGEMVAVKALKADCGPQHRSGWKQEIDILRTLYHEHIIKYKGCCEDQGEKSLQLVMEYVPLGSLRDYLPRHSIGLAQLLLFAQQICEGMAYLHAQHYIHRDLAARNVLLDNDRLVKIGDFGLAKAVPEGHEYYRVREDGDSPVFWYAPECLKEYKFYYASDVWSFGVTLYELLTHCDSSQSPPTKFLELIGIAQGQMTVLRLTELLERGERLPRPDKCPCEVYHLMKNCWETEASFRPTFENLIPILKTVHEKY
JAK1, sequence (P23458 875-1153): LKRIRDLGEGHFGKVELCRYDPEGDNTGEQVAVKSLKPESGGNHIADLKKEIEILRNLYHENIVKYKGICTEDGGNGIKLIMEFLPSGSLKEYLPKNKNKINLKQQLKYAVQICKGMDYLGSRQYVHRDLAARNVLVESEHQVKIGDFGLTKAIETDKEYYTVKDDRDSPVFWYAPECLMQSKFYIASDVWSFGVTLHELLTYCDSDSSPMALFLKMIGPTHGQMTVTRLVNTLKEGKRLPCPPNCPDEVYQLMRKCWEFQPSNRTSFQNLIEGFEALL

On to `N#CC[C@]1(n2ccc(-c3nc(-c4cc(N)[nH]n4)cc4ncccc34)n2)C[C@H](C#N)C1` [Example 41, trans-3-{3-[7-(5-amino-1H-pyrazol-3-yl)-1,6-naphthyridin-5-yl]-1H-pyrazol-1-yl}-3-(cyanomethyl)cyclobutanecarbonitrile], for which the IC50 on JAK2 came out at 21 nM; at JAK1, 14 nM; on JAK3, 1240 nM; in test [1], 76 nM; at TYK2, 8 nM.

As to `N#CC[C@H]1C[C@@](CC#N)(n2ccc(-c3nc(-c4cn[nH]c4)cc4ncccc34)n2)C1` [Example 78, 2,2′-(cis-1-{3-[7-(1H-pyrazol-4-yl)-1,6-naphthyridin-5-yl]-1H-pyrazol-1-yl}cyclobutane-1,3-diyl)diacetonitrile], the IC50 on JAK2 was determined as 104 nM; on JAK1, 172 nM; on JAK3 it was 8610 nM; in test [1], 76 nM; on TYK2, 14 nM.

With `Cn1cc(-c2cc3ncccc3c(-c3ccn([C@]4(CC#N)C[C@H](C#N)C4)n3)n2)cn1` [Example 103, cis-3-(cyanomethyl)-3-{3-[7-(1-methyl-1H-pyrazol-4-yl)-1,6-naphthyridin-5-yl]-1H-pyrazol-1-yl}cyclobutanecarbonitrile], the half-maximal inhibitory concentration (IC50) was 13 nM at JAK2; 55 nM at JAK1; 873 nM at JAK3; 40 nM in test [1]; 7 nM at TYK2.

As for `N#CCN1CC(CC#N)(n2ccc(-c3nc(-c4cnn(C5COC5)c4)cc4ncccc34)n2)C1` [Example 120, 2,2′-[3-(3-{7-[1-(oxetan-3-yl)-1H-pyrazol-4-yl]-1,6-naphthyridin-5-yl}-1H-pyrazol-1-yl)azetidine-1,3-diyl]diacetonitrile], the 50% inhibitory concentration (IC50) turned out to be 28 nM at JAK2; 521 nM on JAK1; 8520 nM on JAK3; 44 nM in test [1] (Lymphocyte); 15 nM on TYK2.

Turning to `N#CC[C@]1(n2ncc(-c3cc(-c4cn[nH]c4)cc4ncccc34)n2)C[C@H](C#N)C1` [Example 315, trans-3-(cyanomethyl)-3-{4-[7-(1H-pyrazol-4-yl)quinolin-5-yl]-2H-1,2,3-triazol-2-yl}cyclobutanecarbonitrile], the IC50 is 215 nM at JAK2; 524 nM at JAK1; more than 10000 nM at JAK3; 123 nM in test [1]; 19 nM at TYK2.

For `Cn1cc(-c2cc(-c3cnn([C@]4(CC#N)C[C@H](C#N)C4)c3)n3ccnc3c2)cn1` [Example 458, cis-3-(cyanomethyl)-3-{4-[7-(1-methyl-1H-pyrazol-4-yl)imidazo[1,2-a]pyridin-5-yl]-1H-pyrazol-1-yl}cyclobutanecarbonitrile], the IC50 on JAK2 (JAK Caliper enzyme assay) was 204 nM; on JAK1 (JAK Caliper enzyme assay), 1680 nM; on JAK3 (JAK Caliper enzyme assay), more than 10000 nM; in test [1] it was 177 nM; on TYK2 (JAK Caliper enzyme assay), 25 nM.

Turning to `Cn1cc(-c2cn3ncnc3c(-c3cnn(C4(CC#N)CN(CC#N)C4)c3)n2)cn1` [Example 477, 2,2′-(3-{4-[6-(1-methyl-1H-pyrazol-4-yl)[1,2,4]triazolo[1,5-a]pyrazin-8-yl]-1H-pyrazol-1-yl}azetidine-1,3-diyl)diacetonitrile], the IC50 at JAK2 (JAK Caliper enzyme assay) is 2630 nM; at JAK1 (JAK Caliper enzyme assay), more than 10000 nM; on JAK3 (JAK Caliper enzyme assay) it was more than 10000 nM; on TYK2 (JAK Caliper enzyme assay), 261 nM.

In the case of `Cn1cc(-c2cn3ncnc3c(-c3cnn(C4(CC#N)CN(S(C)(=O)=O)C4)c3)n2)cn1` [Example 478, [3-{4-[6-(1-methyl-1H-pyrazol-4-yl)[1,2,4,5-a]pyrazin-8-yl]-1H-pyrazol-1-yl}-1-(methylsulfonyl)azetidin-3-yl]acetonitrile], the IC50 at JAK2 (JAK Caliper enzyme assay) was 2190 nM; on JAK1 (JAK Caliper enzyme assay), more than 10000 nM; at JAK3 (JAK Caliper enzyme assay), more than 10000 nM; at TYK2 (JAK Caliper enzyme assay), 281 nM.

`Cn1cc(-c2cc3nccnc3c(-c3cnn(C4(CC#N)CN(CC(F)(F)F)C4)c3)n2)cn1` [Example 479, [3-{4-[7-(1-methyl-1H-pyrazol-4-yl)pyrido[3,4-b]pyrazin-5-yl]-1H-pyrazol-1-yl}-1-(2,2,2-trifluoroethyl)azetidin-3-yl]acetonitrile]: the IC50 at JAK2 (JAK Caliper enzyme assay) was 24 nM; at JAK1 (JAK Caliper enzyme assay) it was 169 nM; at JAK3 (JAK Caliper enzyme assay) it was 3400 nM; on TYK2 (JAK Caliper enzyme assay), 11 nM.

For `Cn1cc(-c2cc3nccnc3c(-c3cnn(C4(CC#N)CN(CC#N)C4)c3)n2)cn1` [Example 480, 2,2′-(3-{4-[7-(1-methyl-1H-pyrazol-4-yl)pyrido[3,4-b]pyrazin-5-yl]-1H-pyrazol-1-yl}azetidine-1,3-diyl)diacetonitrile], the IC50 on JAK2 (JAK Caliper enzyme assay) worked out at 17 nM; at JAK1 (JAK Caliper enzyme assay), 145 nM; at JAK3 (JAK Caliper enzyme assay), 3750 nM; on TYK2 (JAK Caliper enzyme assay), 11 nM.

Turning to `Cn1cc(-c2cc3nccnc3c(-c3ccn(C4(CC#N)CN(CC#N)C4)n3)n2)cn1` [Example 481], the IC50 on JAK2 (JAK Caliper enzyme assay) is 3530 nM; at JAK1 (JAK Caliper enzyme assay), more than 10000 nM; on JAK3 (JAK Caliper enzyme assay), more than 10000 nM; at TYK2 (JAK Caliper enzyme assay) it was 1370 nM.

Take `Cn1cc(-c2cc3nccnc3c(-c3ccn(C4(CC#N)CN(CC(F)(F)F)C4)n3)n2)cn1` [Example 482, [3-{3-[7-(1-methyl-1H-pyrazol-4-yl)pyrido[3,4-b]pyrazin-5-yl]-1H-pyrazol-1-yl}-1-(2,2,2-trifluoroethyl)azetidin-3-yl]acetonitrile]: the 50% inhibitory concentration (IC50) was more than 10000 nM on JAK2 (JAK Caliper enzyme assay), more than 10000 nM on JAK1 (JAK Caliper enzyme assay), more than 10000 nM on JAK3 (JAK Caliper enzyme assay) and 3790 nM at TYK2 (JAK Caliper enzyme assay).

Turning to “[3-(4-{7-[1-(oxetan-3-yl)-1H-pyrazol-4-yl]-1,6-naphthyridin-5-yl}-1H-pyrazol-1-yl)-1-(2,2,2-trifluoroethyl)azetidin-3- [Example 10]”, the IC50 on JAK2 is 10 nM; on JAK1, 86 nM; on JAK3, 2000 nM; on TYK2, 20 nM.

The record behind these values is patent US11254668B2, “Pyrazolo[1,5-A]pyrazin-4-yl and related derivatives” (Pfizer Inc., priority 2017, dated 2022).
